Read-outs that look alike come from different tables or passages of the source.
Tests used:
3T3 spheroids [1] = assay: Spheroid toxicity assay (contraction of magnetically 3D bioprinted spheroids, mobile device imaging); format: cell-based, murine
Description: The spheroid toxicity assay was designed to rapidly assess toxicity in M3DB spheroids (Fig. 1A)[26]. At 70–80% confluence, 3T3s grown in 2D were statically incubated overnight with magnetic nanoparticles, allowing for nanoparticle association with the cells (NanoShuttle, Nano3D Biosciences, Houston, TX) at a concentration of 1 μL/1 × 10^4 cells (50 pg/cell)[18][25]. Cells were magnetized by the electrostatic and non-specific attachment of nanoparticles to the cell membrane via poly-L-lysine. Once attached onto the membrane, the nanoparticles remain for 7–8 d before releasing into the ECM[18]. If internalized, the nanoparticles will exit the cell still attached to the membrane.
After magnetization, the cells were enzymatically detached with trypsin, resuspended in media, then distributed into ultra-low attachment 6-well plates (Corning, Tewksbury, MA) at a concentration of 3.2 × 10^6 cells in 2 mL (1.6 × 10^6 cells/mL). A magnetic drive of 6 neodymium magnets (Nano3D Biosciences) was placed atop the well plate to levitate the cells in 3D (500 G, 30 pN, see Supplemental Fig. S12). The purpose of this levitation step was to induce ECM formation, as was shown previously with primary human pulmonary fibroblasts and tracheal smooth muscle cells that extruded laminin after 1 h of levitation. […] After 1 h of levitation, the levitated cultures were broken up and resuspended in media using pipette action to yield a suspension of magnetized cells and ECM, which was distributed into an ultra-low attachment 96-well plate (Corning) at a concentration of 7.5 × 10^4 cells/well (n = 3 per compound concentration). Immediately afterwards, the plate was placed atop a magnetic drive of 96 neodymium magnets (0.0625” OD, Nano3D Biosciences) to attract the cells (120 G, 10 pN, see Supplemental Fig. S12) and ECM to the bottom of the well to form a spheroid. These spheroids were printed on the magnets for 15 min. At this point, the cells within the spheroids were connected but loose, and their competency could be empirically assessed by their ability to stay together when the magnet was removed. Towards the end of the printing time, compounds were added to the wells achieve their final concentrations. The plate was then removed from the magnet and the spheroids were allowed to contract.
M3DB spheroids and their contraction were imaged using a mobile device-based imaging system (Fig. 1B)[26]. After printing, the plate of spheroids were placed atop an acrylic imaging apparatus with a mobile device (iPod touch 5th generation, 16 GB, Apple Computer, Cupertino, CA) below the plate facing upwards, and a light source (LightPad A920, Artograph, Delano, MN) above the plate to illuminate the images. The mobile device was programmed using an application (Experimental Assistant, Nano3D Biosciences) to image the plate every 4 min for a period of 10 h. When the spheroids had finished contracting, the images were transferred to a computer where they were analyzed using a custom image analysis code written in Python that processed thousands of images in hours. The area of the spheroid was measured over time, as well as the rate of contraction for the first 150 min using a linear least-squares fit (OriginPro, OriginLab, Northampton, MA). The rates of contraction served as the endpoint for the assay, and were plotted against compound concentration and fit to a Boltzmann sigmoidal function (OriginPro) from which the IC50’s were determined.

3T3s in 2D = assay: MTT assay on 2D monolayers, viability after 72 h; format: cell-based, murine; settings: for MTT IC50 / IC50: 2D, viability at 72 h; for Effect on viability in 2D: MTT
Description: The MTT assay was performed to compare its endpoint, viability of 3T3s in 2D after 72 h, with spheroid contraction. 3T3s were seeded on 96-well plates (n = 3 per compound concentration) at a concentration of 2.5 × 10^4 cells/well to adhere overnight. The following day, compounds were added to each well at the desired concentration. After 72 hours of incubation, the media was replaced with 10% MTT (Sigma-Aldrich) in media. The cells were incubated with the reagent for at least 4 hours at 37 °C. Following incubation, the media was aspirated and the remaining formazan was dissolved in acidified isopropanol (0.1 N HCl). The absorbance of the solution was then read at 570 nm in a spectrophotometer (SpectraMax Plus 384, Molecular Devices, Sunnyvale, CA) with background subtraction at 690 nm. Dose-response curves were plotted and fit to a Boltzmann sigmoidal function (OriginPro) similarly to the spheroid toxicity assay.

3T3s = settings: 2D, read-out: Literature IC50, cited from earlier work
3T3 spheroids [2] = assay: MTT assay on 3T3 spheroids; format: cell-based, murine; settings: 3D spheroids
Source text: Figure S7: Dose response curves of 3T3 spheroids exposed to ATRA, SDS, and penicillin-G as measured by the MTT assay.

3T3 spheroids [3] = assay: Gene expression profiling (mRNA sequencing) of spheroids with and without ATRA; settings: 41.6 μM ATRA
[4] = 3D, endpoint rate of contraction over 150 min
[5] = ref NIEHS Registry of Cytotoxicity [35]
[6] = Mus musculus, 2.5 h, 3D, endpoint rate of contraction over 150 min

For O=c1[nH]cc(F)c(=O)[nH]1 [5′-fluorouracil], the IC50 (3T3 spheroids [1]; [4]) was 253 µM, the “MTT IC50” value (3T3s in 2D) was “n.s” and the “Effect on viability in 2D” value (3T3s in 2D; 72 h) was “no significant effect”. The IC50 (3T3s; [5]) was 2.6 µM.
With CC1=C(/C=C/C(C)=C/C=C/C(C)=C/C(=O)O)C(C)(C)CCC1 [ATRA, all-trans retinoic acid] the “Concentration at and above which spheroid contraction was affected” value (3T3 spheroids [1]) was at least 41.6 µM, the IC50 (3T3 spheroids [1]; [6]) was 82.8 µM and the “Fate of 3T3s in 2D on exposure” value (3T3s in 2D; 2D culture, 41.6 μM ATRA, 72 h) was “lysed before 72 h”. The IC50 (3T3s in 2D; Mus musculus) was 24.7 µM, the “Dose response of spheroid viability by MTT” value (from here on “Dose response”) (3T3 spheroids [2]) was “significant dose-dependent response” and the IC50 (3T3s; ref Seiler et al., 2011 [16]) was 20 µM. For the same compound, the “Expression of genes for apoptotic inhibitors (BCL2, BIRC2, BIRC3)” value (3T3 spheroids [3]) was “downregulation”, the “Expression of the gene for p53” value (3T3 spheroids [3]) was “upregulation” and the “Number of genes downregulated as a function of exposure” value (3T3 spheroids [3]) was 40 genes. The “Number of genes expressed differently between exposed and unexposed spheroids” value (3T3 spheroids [3]; 72 h exposure, 364 genes profiled) was 99 genes.
In the case of C[C@@H]1C[C@H]2[C@@H]3CCC4=CC(=O)C=C[C@]4(C)[C@@]3(F)[C@@H](O)C[C@]2(C)[C@@]1(O)C(=O)CO [Dexamethasone, dexamethasone], the IC50 (3T3 spheroids [1]; [6]) is reported as 84.6 µM, the “MTT IC50” value (3T3s in 2D) is reported as “n.s” and the “Effect on viability in 2D” value (3T3s in 2D; 72 h) is reported as “no significant effect”. For the same compound, the IC50 (3T3s; ref Nakada et al., 1987 [45]) was 0.00277 µM.
For COc1cccc2c1C(=O)c1c(O)c3c(c(O)c1C2=O)C[C@@](O)(C(=O)CO)C[C@@H]3O[C@H]1C[C@H](N)[C@H](O)[C@H](C)O1 [Doxorubicin, doxorubicin], the IC50 (3T3 spheroids [1]; [6]) is listed as 46.7 µM, the IC50 (3T3s in 2D; Mus musculus) is listed as 12.7 µM and the IC50 (3T3s; [5]) is listed as 0.33 µM.
For C=C[C@@]1(C)CC(=O)[C@]2(O)[C@@]3(C)[C@@H](O)CCC(C)(C)[C@@H]3[C@H](O)[C@H](OC(C)=O)[C@@]2(C)O1 [Forskolin, forskolin], the IC50 (3T3 spheroids [1]; [6]) is given as 4.7 µM, the IC50 (3T3s in 2D; Mus musculus) is given as 0.6 µM and the IC50 (3T3s; ref Varrault et al., 1992 [46]) is given as 26 µM.
With CC1(C)S[C@@H]2[C@H](NC(=O)Cc3ccccc3)C(=O)N2[C@H]1C(=O)O [Penicillin-G, penicillin-G] the “Spheroid Assay IC50” value (3T3 spheroids [1]; [4]) was “n.s”, the “Effect on spheroid contraction” value (3T3 spheroids [1]; rate of contraction over first 150 min) was “no effect on spheroid contraction” and the IC50 (3T3s in 2D; Mus musculus) was 1770 µM. For the same compound, the “Dose response” value (3T3 spheroids [2]) was “significant dose-dependent response” and the IC50 (3T3s; [5]) was 5730 µM.
In the case of CCCCCCCCCCCCOS(=O)(=O)[O-].[Na+] [SDS, sodium dodecyl sulfate], the IC50 (3T3 spheroids [1]; [4]) is reported as 282 µM, the IC50 (3T3s in 2D) is reported as 167 µM and the “Dose response” value (3T3 spheroids [2]) is reported as “significant dose-dependent response”. The IC50 (3T3s; [5]) was 270 µM.
